Data from PubChem BioAssay (NCI).
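Step 1: Grow cells in 96-well plates. Step 2: Expose to compound for 48 hours at 5 concentrations. Step 3: Interpolate endpoints linearly; if unreached, use highest concentration. The concentration for full growth arrest is given as TGI.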

How the values were obtained:
Assay in all cases: DTP human tumour cell line panel, 48 h
[1] = tested on: SNB-78 CNS
[2] = tested on: SK-MEL-2 melanoma
[3] = tested on: MALME-3M melanoma
[4] = tested on: LOX IMVI melanoma
[5] = tested on: OVCAR-8 ovarian
[6] = tested on: NCI-H226 lung
[7] = tested on: DMS 273 small cell lung
[8] = tested on: XF 498 CNS
[9] = tested on: SF-268 CNS
[10] = tested on: DMS 114 small cell lung
[11] = tested on: LXFL 529 NSCLC
[12] = tested on: SR leukemia
[13] = tested on: OVCAR-3 ovarian
[14] = tested on: MOLT-4 leukemia
[15] = tested on: M19-MEL melanoma
[16] = tested on: A549 NSCLC
[17] = tested on: HT29 colon
[18] = tested on: HCC-2998 colon
[19] = tested on: HOP-18 NSCLC
[20] = tested on: SW-620 colon
[21] = tested on: CAKI-1 renal
[22] = tested on: RXF 393 renal
[23] = tested on: TK-10 renal
[24] = tested on: UACC-62 melanoma
[25] = tested on: HOP-92 NSCLC
[26] = tested on: UO-31 renal
[27] = tested on: CCRF-CEM leukemia
[28] = tested on: KM12 colon
[29] = tested on: SF-295 CNS
[30] = tested on: SK-MEL-5 melanoma
[31] = tested on: EKVX NSCLC
[32] = tested on: KM20L2 colon
[33] = tested on: NCI-H23 lung
[34] = tested on: U251 CNS
[35] = tested on: SNB-75 CNS
[36] = tested on: COLO 205 colon
[37] = tested on: SF-539 CNS
[38] = tested on: SK-MEL-28 melanoma
[39] = tested on: SNB-19 CNS
[40] = tested on: IGROV1 ovarian
[41] = tested on: HL-60(TB) leukemia
[42] = tested on: 786-0 renal
[43] = tested on: HCT-15 colon
[44] = tested on: NCI-H460 lung
[45] = tested on: OVCAR-4 ovarian
[46] = tested on: HCT-116 colon
[47] = tested on: M14 melanoma
[48] = tested on: HOP-62 NSCLC
[49] = tested on: OVCAR-5 ovarian
[50] = tested on: RXF-631 renal
[51] = tested on: ACHN renal
[52] = tested on: NCI-H522 lung
[53] = tested on: SK-OV-3 ovarian
[54] = tested on: UACC-257 melanoma
[55] = tested on: K-562 leukemia
[56] = tested on: RPMI-8226 leukemia
[57] = tested on: SN12C renal
[58] = tested on: DLD-1 colon
[59] = tested on: A498 renal

`CCCCOCc1cc(CN2CCN(C)CC2)c(O)c2ncccc12` was tested, and the TGI [1] was over 100 µM, the TGI [2] was over 100 µM and the TGI [3] was over 100 µM. It also gave a TGI [4] of over 100 µM, a TGI [5] of over 100 µM and a TGI [6] of 88.4 µM. The TGI [7] was 40.2 µM, the TGI [8] was over 100 µM and the TGI [9] was over 100 µM. It also gave a TGI [10] of 23.9 µM, a TGI [11] of over 100 µM and a TGI [12] of 33.2 µM. The TGI [13] was over 100 µM, the TGI [14] was 77.2 µM and the TGI [15] was over 100 µM. The TGI [16] was over 100 µM, the TGI [17] was over 100 µM and the TGI [18] was 90.2 µM. The TGI [19] was 39.9 µM, the TGI [20] was 81.4 µM and the TGI [21] was over 100 µM. It also gave a TGI [22] of over 100 µM, a TGI [23] of over 100 µM and a TGI [24] of 40.6 µM. The TGI [25] was over 100 µM, the TGI [26] was 55.8 µM and the TGI [27] was 30.2 µM. The TGI [28] was over 100 µM, the TGI [29] was 33.5 µM and the TGI [30] was 26.8 µM. The TGI [31] was over 100 µM, the TGI [32] was 73.7 µM and the TGI [33] was 47.6 µM. It also gave a TGI [34] of 44.4 µM, a TGI [35] of over 100 µM and a TGI [36] of over 100 µM. The TGI [37] was 76.7 µM, the TGI [38] was over 100 µM and the TGI [39] was over 100 µM. The TGI [40] was 97.3 µM, the TGI [41] was 13.8 µM and the TGI [42] was 50.7 µM. It also gave a TGI [43] of 33.7 µM, a TGI [44] of over 100 µM and a TGI [45] of over 100 µM. The TGI [46] was 87 µM, the TGI [47] was 90 µM and the TGI [48] was 41.8 µM. For the same molecule, the TGI [49] was 95.8 µM, the TGI [50] was over 100 µM and the TGI [51] was 54.2 µM. For the same molecule, the TGI [52] was over 100 µM, the TGI [53] was over 100 µM and the TGI [54] was over 100 µM. It also gave a TGI [55] of over 100 µM, a TGI [56] of 26.3 µM and a TGI [57] of over 100 µM. The TGI [58] was over 100 µM and the TGI [59] was 78.9 µM.
With `CC1(C)C=N[N+]2(C)C3C=CC(CC3)C12` (stereo unspecified) the TGI [1] was over 100 µM, the TGI [2] was over 100 µM and the TGI [3] was over 100 µM. For the same molecule, the TGI [4] was over 100 µM, the TGI [5] was over 100 µM and the TGI [6] was over 100 µM. For the same molecule, the TGI [9] was over 100 µM, the TGI [10] was over 100 µM and the TGI [11] was over 100 µM. It also gave a TGI [12] of over 100 µM, a TGI [13] of over 100 µM and a TGI [14] of over 100 µM. It also gave a TGI [15] of over 100 µM, a TGI [16] of over 100 µM and a TGI [17] of over 100 µM. It also gave a TGI [18] of over 100 µM, a TGI [19] of over 100 µM and a TGI [21] of over 100 µM. The TGI [22] was over 100 µM, the TGI [23] was over 100 µM and the TGI [24] was over 100 µM. The TGI [25] was over 100 µM, the TGI [26] was over 100 µM and the TGI [27] was over 100 µM. For the same molecule, the TGI [28] was over 100 µM, the TGI [29] was over 100 µM and the TGI [30] was over 100 µM. It also gave a TGI [31] of over 100 µM, a TGI [32] of over 100 µM and a TGI [33] of over 100 µM. It also gave a TGI [34] of over 100 µM, a TGI [35] of over 100 µM and a TGI [36] of over 100 µM. For the same molecule, the TGI [37] was over 100 µM, the TGI [38] was over 100 µM and the TGI [39] was over 100 µM. It also gave a TGI [40] of over 100 µM, a TGI [41] of over 100 µM and a TGI [42] of over 100 µM. For the same molecule, the TGI [43] was over 100 µM, the TGI [44] was over 100 µM and the TGI [46] was over 100 µM. The TGI [47] was over 100 µM, the TGI [48] was over 100 µM and the TGI [49] was over 100 µM. It also gave a TGI [50] of over 100 µM, a TGI [51] of over 100 µM and a TGI [52] of over 100 µM. It also gave a TGI [53] of over 100 µM, a TGI [54] of over 100 µM and a TGI [55] of over 100 µM. For the same molecule, the TGI [56] was over 100 µM, the TGI [57] was over 100 µM and the TGI [58] was over 100 µM. It also gave a TGI [59] of over 100 µM.
`CC(CNCCCNCCNCCCNCO)[N+](=O)[O-]` (stereo unspecified) was tested, and the TGI [1] was 48.3 µM, the TGI [2] was 29.4 µM and the TGI [3] was 4.22 µM. It also gave a TGI [4] of 28.2 µM, a TGI [5] of 27.9 µM and a TGI [7] of 32.4 µM. The TGI [8] was 29.9 µM, the TGI [9] was 29.6 µM and the TGI [10] was 30.6 µM. It also gave a TGI [11] of 13.9 µM, a TGI [12] of 28.4 µM and a TGI [13] of 30.4 µM. The TGI [14] was 30.4 µM, the TGI [16] was 57 µM and the TGI [17] was 41.7 µM. The TGI [18] was 31 µM, the TGI [19] was 28.3 µM and the TGI [20] was 12.2 µM. For the same molecule, the TGI [21] was 18.6 µM, the TGI [22] was 29.2 µM and the TGI [23] was 8.6 µM. It also gave a TGI [24] of 29.9 µM, a TGI [25] of 8.57 µM and a TGI [26] of 32.3 µM. The TGI [27] was 11.5 µM, the TGI [28] was 29.7 µM and the TGI [29] was over 100 µM. It also gave a TGI [30] of 29.9 µM, a TGI [31] of 29.9 µM and a TGI [32] of 31.7 µM. It also gave a TGI [33] of 28.6 µM, a TGI [34] of 29.5 µM and a TGI [35] of 35.3 µM. It also gave a TGI [36] of 19.3 µM, a TGI [37] of 29.2 µM and a TGI [38] of 26.6 µM. For the same molecule, the TGI [39] was over 100 µM, the TGI [40] was 44.3 µM and the TGI [41] was 19.1 µM. It also gave a TGI [42] of 29.3 µM, a TGI [43] of 23.2 µM and a TGI [44] of 32.3 µM. For the same molecule, the TGI [45] was 27.9 µM, the TGI [46] was 22.7 µM and the TGI [47] was 23.6 µM. For the same molecule, the TGI [48] was over 100 µM, the TGI [49] was 26.8 µM and the TGI [50] was 30.3 µM. For the same molecule, the TGI [51] was 30.3 µM, the TGI [53] was over 100 µM and the TGI [54] was 26.1 µM. For the same molecule, the TGI [55] was 19.6 µM, the TGI [56] was 35 µM and the TGI [57] was 28.4 µM. It also gave a TGI [58] of 14.4 µM and a TGI [59] of 32.3 µM.
Work on `CN[C@@H](C)[C@H](N)c1ccccc1` yielded a TGI [1] of over 100 µM, a TGI [4] of over 100 µM and a TGI [5] of over 100 µM. For the same molecule, the TGI [6] was over 100 µM, the TGI [7] was over 100 µM and the TGI [11] was over 100 µM. For the same molecule, the TGI [13] was over 100 µM, the TGI [14] was over 100 µM and the TGI [16] was over 100 µM. For the same molecule, the TGI [17] was over 100 µM, the TGI [18] was over 100 µM and the TGI [19] was over 100 µM. For the same molecule, the TGI [20] was over 100 µM, the TGI [21] was over 100 µM and the TGI [22] was over 100 µM. For the same molecule, the TGI [23] was over 100 µM, the TGI [24] was over 100 µM and the TGI [25] was over 100 µM. The TGI [26] was over 100 µM, the TGI [27] was over 100 µM and the TGI [28] was over 100 µM. For the same molecule, the TGI [29] was over 100 µM, the TGI [30] was over 100 µM and the TGI [31] was over 100 µM. The TGI [33] was over 100 µM, the TGI [34] was over 100 µM and the TGI [35] was over 100 µM. It also gave a TGI [36] of over 100 µM, a TGI [37] of over 100 µM and a TGI [38] of over 100 µM. It also gave a TGI [40] of over 100 µM, a TGI [42] of over 100 µM and a TGI [43] of over 100 µM. For the same molecule, the TGI [44] was over 100 µM, the TGI [46] was over 100 µM and the TGI [47] was over 100 µM. For the same molecule, the TGI [50] was over 100 µM, the TGI [51] was over 100 µM and the TGI [52] was over 100 µM. It also gave a TGI [53] of over 100 µM, a TGI [54] of over 100 µM and a TGI [55] of over 100 µM. It also gave a TGI [56] of over 100 µM, a TGI [57] of over 100 µM and a TGI [58] of over 100 µM. The TGI [59] was over 100 µM.
